Measurements: US12595232B2, “DRG-MDM2-1 for use as a novel Mouse Double Minute 2 (MDM2) inhibitor” (BAHCESEHIR UNIVERSITESI, priority 2020, dated 2026)
Like-named read-outs stand apart in the source and are kept apart here.

Columns and labels:
[1] = target: MDM2 protein (Homo sapiens, UniProt Q00987); conditions: versus a natural p53 peptide; cited from earlier work
[2] = test system: MDA-MB231 cell lines; assay: MTT cell viability assay (IC50); type: cell-based; conditions: Homo sapiens, MDA-MB-231, single dose of treatment, 10^−9 to 10^−4 M, 570 nm absorbance, FIG. 1, read-out: IC50 (half-maximal inhibitory concentration), MTT cell viability
Protocol: (§1) HCT 116 colon cancer and MDA-MB231 breast cancer cell lines are used in cell culture experiments.
(§2) Cells were treated with high-glucose DMEM medium (Biosera) supplemented with 10% FBS (Gibco) and 1× penicillin/streptomycin (Multicell). The assay was designed to contain 10,000 cells for each well of 24-well cell culture plates before being treated with inhibitors.
(§3) Compound of formula I was dissolved with DMSO as 20 mM stock. 24 hours later, the solution was diluted in DMEM with 10% FBS and final concentration of vehicle DMSO was 0.5% at maximum. Therefore, the vehicle group included 0.5% DMSO concentration in experiments. Intensive cultivation of cells causes a decrease in proliferation capacity.
The MTT cell viability assay was used to detect values of half-maximal inhibitory concentration (IC50). Different concentrations of compound of formula I ranging between 10^−9 to 10^−4 M were tested on MDA-MB231 cell lines with single dose of treatment. 570 nm absorbance values were recorded and IC50 values were calculated by dose response—inhibition curves and nonlinear regression analysis on Graphpad Prism 8 software.

[3] = test system: HCT 116 colon cancer and MDA-MB231 breast cancer cell lines; assay: MTT cell proliferation assay (time course); type: cell-based; conditions: for cytotoxicity at 100 µM: read-out: cell viability decrease
Protocol: as §1, §2, §3
For proliferation inhibition analysis, cells were seeded in 24 well plates at 1×10^4 cells/well cells overnight without drug treatment. During the cell proliferation experiments, we performed five days of treatment in each cell line and repeated the experiments three times to check each experiment. No significant difference in cell viability was observed after the third day. Therefore, cells with different drug concentrations were treated for two days. After 48 hours, MTT was applied to the cells and incubated at 37° C. for 4 hours, formazan was solubilized with DMSO (Sigma-Aldrich, St. Louis, USA) and absorbance was measured at 570 nm.
Molecule concentration was 100 μM, the lower concentrations were not shown. Vehicle represents the groups treated with only %0.5 DMSO and Untreated represents no molecule treated group. Molecule responses were evaluated by cell viability which is obtained by spectrophotometric analysis of cells upon MTT treatment at 12 h, 24 h, 48 h and 72 h. […] Statistical significance in graphs was determined by comparing each treatment group with DMSO control using ANOVA testing and significance is considered as p<0.001 (FIG. 2).

[4] = test system: HCT-116 cells; assay: Microscopic evaluation of cells (proliferation, apoptotic morphology); type: cell-based; conditions: FIG. 3
Protocol: Cells were photographed and observed under microscope for three days.
As a result, cell viability decreased by 40% at the end of the first day and reached 60% at the end of the third day. Any cell proliferation change and apoptotic cell morphology were not observed in the untreated and vehicle groups. Moreover, differences in cell morphology were also observed. […] Upon treatment with the compound of formula I according to present invention with 100 μM concentration, cells having the morphology of apoptotic cells were observed starting from the 3rd hour.

MDM2 protein, sequence (Q00987 whole entry, species assumed): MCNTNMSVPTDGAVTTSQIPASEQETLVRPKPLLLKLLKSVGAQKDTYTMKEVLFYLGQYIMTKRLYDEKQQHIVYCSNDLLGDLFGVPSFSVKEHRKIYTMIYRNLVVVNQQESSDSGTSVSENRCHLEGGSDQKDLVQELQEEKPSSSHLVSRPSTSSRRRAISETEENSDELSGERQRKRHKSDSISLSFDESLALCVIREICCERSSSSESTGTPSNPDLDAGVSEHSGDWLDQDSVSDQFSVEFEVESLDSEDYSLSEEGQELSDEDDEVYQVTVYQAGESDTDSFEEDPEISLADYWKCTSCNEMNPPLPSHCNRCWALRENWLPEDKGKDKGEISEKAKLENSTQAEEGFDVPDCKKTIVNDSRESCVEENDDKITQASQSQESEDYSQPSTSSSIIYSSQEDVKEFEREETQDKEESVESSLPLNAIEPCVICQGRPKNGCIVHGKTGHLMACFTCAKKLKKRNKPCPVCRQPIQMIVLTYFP

Compound | binding affinity to MDM2 relative to natural p53 peptide [1] | IC50 [2] | cell viability compared to vehicle and untreated groups ([3]; 100 μM, MTT at 12 h, 24 h, 48 h and 72 h, ANOVA, p<0.001, FIG. 2) | cytotoxicity at 100 µM ([3]; end of the first day) | cytotoxicity at 100 µM ([3]; end of the third day) | time from which cells having the morphology of apoptotic cells were observed ([4]; 100 μM concentration) | apoptotic activity under microscope ([4]; HCT-116) | proliferation under microscope ([4]; HCT-116, observed for three days, versus vehicle and untreated)
MI-319 | 500 fold | – | – | – | – | – | – | –
O=C(O)CC(NC(=O)Cc1c[nH]c2ccccc12)c1ccc(F)cc1 (centres unmarked) [compound of formula I] | – | 77 µM | statistically significant difference | 40% | 60% | 3 hour | clear apoptotic activity from the twelfth hour | reduced proliferation
